Results taken from paper PMC11662004 (Communications Chemistry, 2024).
pIC50: −log10 of the molar value. Several values for one entry are separate records, joined by “and”; a condition that tells them apart may be missing. Identical values can stand only once.

Legend:
[1] = target: T1, TET2CDΔLCI (Homo sapiens, UniProt Q6N021); assay: AlphaScreen competition assay with biotinylated 5mC dsDNA; assay type: binding; conditions: 12.5 nM TET2CDΔLCI, 12.5 nM 5mC dsDNA; for competition pIC50 TET2CDΔLCI: n = 2
T1 construct: FLAG-[thrombin cleavage site]-SUMO (N); made in house; host or cells: E. coli
Procedure: (§1) AlphaScreen™ Histidine (Nickel Chelate) Detection Kit was used to evaluate displacement of […] (^5mC dsDNA)[33],[34]. Competitor DNA oligomers in assay buffer were manually dispensed onto 384-well ProxiPlates (5 μL) in a 2-fold dilution series. His6-tagged NgTet1 or TET2CDΔLCI in assay buffer was added (5 μL), and the mixture was pre-incubated with the competitor DNA at room temperature for 10 min. Cofactors and biotinylated ^5mC dsDNA in assay buffer were added (5 μL), and the mixture was further incubated at room temperature for 10 min. A mixture of AlphaScreen beads (1:62.5 dilution) in assay buffer was added (5 μL), and the full mixture was incubated at room temperature for 1 h. The final mixtures (20 μL) contained 100 nM NgTet1 (50 nM ^5mC dsDNA) or 12.5 nM TET2CDΔLCI (12.5 nM ^5mC dsDNA), 50 μM sodium L-ascorbate, 5 μM (NH4)2Fe(SO4)2, and 5 μM disodium NOG in assay buffer (50 mM HEPES [pH 7.3], 150 mM NaCl, 0.1% v/v BSA, 0.01% v/v Tween® 20). For the assay interference counter screen, His6-tagged TET protein and biotinylated ^5mC dsDNA were replaced with 1.6 nM biotinylated His6 peptide. Chemiluminescence was measured on a PHERAstar FS/FSX (BMG Labtech) equipped with an AlphaScreen 680 570 module. All AlphaScreen bead manipulations were performed under subdued lighting. Inhibition data was normalised to reactions containing no competitor and fitted using “log(inhibitor) vs. response - Variable slope (four parameters)” non-linear regression model on GraphPad Prism 5. […]
(§2) Fig. S5 TETs bind to DNA in a sequence- and modification-independent manner. A binding assay between a biotinylated 5mC dsDNA oligomer and His6-tagged TET was developed using AlphaScreen Histidine (Nickel Chelate) assay. […] Conditions: a 100 nM NgTet1 (50 nM 5mC dsDNA), b 12.5 nM TET2CDΔLCI (12.5 nM 5mC dsDNA), c 1.6 nM biotinylated His6 peptide. Each assay was supplemented with 50 μM sodium L-ascorbate, 5 μM (NH4)2Fe(SO4)2, and 5 μM disodium NOG. Data shown as the mean of three to four experimental replicates (n = 3–4; mean ± SD); tabulated data reported as the mean of two independent replicates (n = 2).

[2] = target: T2, NgTet1 (Naegleria gruberi, UniProt D2W6T1); assay: as above; assay type: binding; conditions: 100 nM NgTet1, 50 nM 5mC dsDNA; for competition pIC50 NgTet1: n = 2
T2 construct: His6-tagged full-length Naegleria gruberi NgTet1 (321 a. a.) protein with a thrombin cleavage site; made in house; host or cells: E. coli BL21(DE3)
T2 sequence (D2W6T1 1-321): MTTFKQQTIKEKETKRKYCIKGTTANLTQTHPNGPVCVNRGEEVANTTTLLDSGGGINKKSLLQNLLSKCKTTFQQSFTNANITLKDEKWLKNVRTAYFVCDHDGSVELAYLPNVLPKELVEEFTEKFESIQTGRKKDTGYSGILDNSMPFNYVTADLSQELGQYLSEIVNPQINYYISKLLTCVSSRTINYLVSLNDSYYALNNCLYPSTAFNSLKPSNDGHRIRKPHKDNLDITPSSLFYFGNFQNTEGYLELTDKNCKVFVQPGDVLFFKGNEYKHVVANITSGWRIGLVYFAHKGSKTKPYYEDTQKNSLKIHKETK
Procedure: as §1, §2

[3] = target: T2, NgTet1; assay: biochemical; conditions: for normalised activity: NgTet1, NMR, 2 independent replicates; for pIC50: 5 μM NgTet1, 50 μM 2OG; for normalised activity, %: NMR
Procedure: Activity was normalised against reactions containing vehicle (DMSO). […] AS data shown as the mean of three experimental replicates (n = 3; mean ± SD); ^1H NMR data plotted from two independent replicates (n = 2); tabulated data reported as the mean of two and three independent replicates for ^1H NMR and AS, respectively (n = 2–3, SD reported for n = 3). N. d.: not determined; AS: AlphaScreen.
All ^1H NMR spectra were recorded at 25 °C using D2O as a reference for internal deuterium lock on a Bruker Avance III 700 MHz equipped with an inverse TCI cryoprobe in 3 or 5 mm diameter tubes with a total sample volume of 160 or 565 μL, respectively. The water signal was reduced using Perfect Echo excitation sculpting suppression. Chemical shifts are reported in ppm relative to D2O (δH = 4.70 ppm).
NgTet1 was pre-incubated with inhibitor dilution series in DMSO-d6 at room temperature for 10 min (50 mM Tris-d11 [pH 7.5], 2% v/v DMSO-d6). Reactions were initiated by the addition of appropriate cofactors and DNA. […] The reactions were quenched by the addition of 9 mM NOG and 9 mM ZnCl2 in 90 mM Tris-d11 [pH 7.5] (20 μL) within the enzyme linear activity window (determined in Figure. S10). Samples were transferred to NMR tubes and subjected to ^1H NMR analysis. Data were processed as described above. Inhibition data was normalised to reactions containing vehicle only (1% v/v DMSO-d6) and fitted using “log(inhibitor) vs. response - Variable slope (four parameters)” non-linear regression model on GraphPad Prism 5.
Activity was normalised against reactions containing vehicle only (100% activity). Data is shown as the mean of 2 independent replicates (n = 2; […]
Fig. S10 Determination of linear NgTet1 enzymatic activity windows for inhibitor characterisation. a 1H NMR succinate detection time courses with no DNA, 5HC DNA (double- […]
complementary 5'-ACC AC5mC GGT GGT-3'). b AlphaScreen 5hmC detection time course using […]
courses shown. 1H NMR reaction conditions: 5 μM NgTet1, 2 mM sodium L-ascorbate, 100 μM […]
v/v D2O. DNA was added to a final concentration of 20 μM of double-stranded DNA. […]

AT DNA: double-stranded self-complementary 5'-ACC ACA TGT GGT-3', CpG replaced by ApT (DNA ACCACATGTGGT; DNA, backbone and methylation of C not given here; self-complementary duplex)
pIC50 [1]: 5.34 | competition pIC50 TET2CDΔLCI [1]: 5.34 | pIC50 [2]: 4.25 | competition pIC50 NgTet1 [2]: 4.25

5HC DNA: non-methylated DNA of the same sequence, 5'-ACC ACC GGT GGT-3', non-substrate (DNA ACCACCGGTGGT; DNA, backbone not given here)
pIC50 [1]: 5.05 | competition pIC50 TET2CDΔLCI [1]: 5.05 | pIC50 [2]: 4.24 | competition pIC50 NgTet1 [2]: 4.24 | uncoupled 2OG decarboxylase activity relative to control ([3]; 1.2 equivalents (6.17 μM) of ligand, no 5mC DNA substrate): 188% | normalised activity ([3]; -Log[inhibitor] (M) 3.77815): 173.555% and 199.834% | normalised activity ([3]; -Log[inhibitor] (M) 4.25527): 239.054% and 238.734% | normalised activity ([3]; -Log[inhibitor] (M) 4.73239): 235.651% and 234.615% | normalised activity ([3]; -Log[inhibitor] (M) 5.20951): 188.852% and 186.764% | normalised activity ([3]; -Log[inhibitor] (M) 5.68664): 131.036% and 130.504% | normalised activity ([3]; -Log[inhibitor] (M) 6.16376): 99.9166% and 102.373% | normalised activity ([3]; -Log[inhibitor] (M) 6.64088): 99.5022% and 101.543% | normalised activity ([3]; -Log[inhibitor] (M) 7.118): 100.648% and 101.556% | normalised activity ([3]; -Log[inhibitor] (M) 7.59512): 99.7851% and 102.052% | normalised activity ([3]; -Log[inhibitor] (M) 8.07224): 101.874% and 100.284%

O=C(O)CNC(=O)C(=O)O [NOG, N-oxalylglycine]
potency reduced in the presence of non-substrate 5HC DNA ([3]; 1H NMR, uncoupled 2OG turnover): 5 fold | pIC50 ([3]; 2OG decarboxylation with 20 µM 5HC DNA, read-out: IC50, 5HC DNA, NMR): 4.63 | pIC50 ([3]; 2OG decarboxylation with 20 µM 5mC DNA, read-out: IC50, 5mC DNA, NMR): 5.31 | normalised activity, % ([3]; 5HC DNA, -Log[inhibitor] (M) 3): 9.08% and 0% | normalised activity, % ([3]; 5HC DNA, -Log[inhibitor] (M) 3.5): 14.96% and 8.89% | normalised activity, % ([3]; 5HC DNA, -Log[inhibitor] (M) 4): 27.44% and 19.98% | normalised activity, % ([3]; 5HC DNA, -Log[inhibitor] (M) 4.5): 46.19% and 37.58% | normalised activity, % ([3]; 5HC DNA, -Log[inhibitor] (M) 5): 68.86% and 59.35% | normalised activity, % ([3]; 5HC DNA, -Log[inhibitor] (M) 5.5): 85.6% and 77.94% | normalised activity, % ([3]; 5HC DNA, -Log[inhibitor] (M) 6): 94.01% and 91.73% | normalised activity, % ([3]; 5HC DNA, -Log[inhibitor] (M) 6.5): 98.78% and 94.75% | normalised activity, % ([3]; 5HC DNA, -Log[inhibitor] (M) 7): 98.78% and 99.12% | normalised activity, % ([3]; 5HC DNA, -Log[inhibitor] (M) 7.5): 97.21% and 98.4% | potency improved relative to AS assay ([3]; 5mC DNA substrate-saturating conditions, 1H NMR): 40 fold | normalised activity, % ([3]; 5mC DNA, -Log[inhibitor] (M) 2.47712): 3.86% and 2.962% | normalised activity, % ([3]; 5mC DNA, -Log[inhibitor] (M) 2.95424): 3.763% and 4.321% | normalised activity, % ([3]; 5mC DNA, -Log[inhibitor] (M) 3.43136): 5.679% and 6.122% | normalised activity, % ([3]; 5mC DNA, -Log[inhibitor] (M) 3.90849): 9.059% and 9.958% | normalised activity, % ([3]; 5mC DNA, -Log[inhibitor] (M) 4.38561): 18.3792% and 18.5451% | normalised activity, % ([3]; 5mC DNA, -Log[inhibitor] (M) 4.86273): 32.2896% and 33.1008% | normalised activity, % ([3]; 5mC DNA, -Log[inhibitor] (M) 5.33985): 53.2739% and 54.7766% | normalised activity, % ([3]; 5mC DNA, -Log[inhibitor] (M) 5.81697): 75.7036% and 73.0834% | normalised activity, % ([3]; 5mC DNA, -Log[inhibitor] (M) 6.29409): 86.8413% and 87.2847% | normalised activity, % ([3]; 5mC DNA, -Log[inhibitor] (M) 6.77): 92.8024% and 96.8118% | normalised activity, % ([3]; 5mC DNA, -Log[inhibitor] (M) 7.25): 100.282% and 100.776% | normalised activity, % ([3]; 5mC DNA, -Log[inhibitor] (M) 7.73): 99.5779% and 101.189% | normalised activity, % ([3]; No DNA, -Log[inhibitor] (M) 2): 1.894% and 2.62% | normalised activity, % ([3]; No DNA, -Log[inhibitor] (M) 2.47712): 5.905% and 12.6681% | normalised activity, % ([3]; No DNA, -Log[inhibitor] (M) 3.43136): 23.7146% and 37.124% | normalised activity, % ([3]; No DNA, -Log[inhibitor] (M) 3.90849): 40.5302% and 59.4882% | normalised activity, % ([3]; No DNA, -Log[inhibitor] (M) 4.38561): 74.4281% and 76.6397% | normalised activity, % ([3]; No DNA, -Log[inhibitor] (M) 4.86273): 97.4209% and 83.0858% | normalised activity, % ([3]; No DNA, -Log[inhibitor] (M) 5.33985): 104.499% and 99.5811% | normalised activity, % ([3]; No DNA, -Log[inhibitor] (M) 5.81697): 103.384% and 101.173% | normalised activity, % ([3]; No DNA, -Log[inhibitor] (M) 6.29409): 102.321% and 96.0908% | pIC50 ([3]; uncoupled 2OG decarboxylation, no DNA, read-out: IC50, No DNA, NMR): 3.93
